System: OSC2 cells
Assay: Semi-quantitative RT-PCR of SS-A/Ro and SS-B/La mRNA
Assay type: cell-based, human
Settings: 100 uM EGCG
Experimental: Total RNA was extracted using an RNeasy total RNA isolation system (QIAGEN, Valentia, Calif.) RT reactions and PCR reactions were performed according to the manufacturer's protocol (Super Array Bioscience Corp). For amplification, the following pair of primers was used,
Amplification was started by heating for 1.5 min at 94° C., followed by 30 cycles for 52 kD SSA/Ro. 25 cycles for GAPDH and 25 cycles for SSB/La, each cycle consisting of 15
second at 94° C., 30 seconds at 57.3° C., and 1 min at 72° C. A final extension was performed at 72° C. for 5 min prior to gel analysis.
To further test this possibility, three cell types, NHEK, NS-SV-AC (an SV40 immortalized cell line derived from human submandibular acinar cells) and OC2 cells (derived from an oral squamous cell carcinoma) were treated with 100 uM EGCG for different times. A semi-quantitative estimate of SS-A/Ro and SS-B/La mRNA levels was then obtained by RT-PCR during the exponential period of amplification. GAPDH was used as a housekeeping gene control.

Structure (SMILES): O=C(O[C@@H]1Cc2c(O)cc(O)cc2O[C@@H]1c1cc(O)c(O)c(O)c1)c1cc(O)c(O)c(O)c1 [EGCG, (−)-epigallocatechin-3-gallate]
- SS-A/Ro mRNA level: showed little change
- reduction in SS-B/La mRNA: less pronounced and did not occur until 24 hrs of exposure
